Source: US20080280994A1, “Ascophyllum Compositions and Methods” (OCEAN NUTRITION CANDA LTD., priority 2004, published 2008)

Key:
[1] = test system: STZ-diabetic mice (KunMing strain); experiment: 4-week treatment study in streptozotocin-induced diabetic mice; format: in vivo
Procedure: Animal Model. […] Diabetes was induced in mice with a single injection of streptozotocin (STZ). After fasting for 12 hrs, male mice with body weight above 20 g were given STZ dissolved in sodium citrate buffer via tail vein at a dose of 110 mg/kg body weight. […] Diabetic animals were divided into 5 groups (10 mice per group). Of these, 3 groups were treated with test samples, one group was a control group, receiving vehicle alone, and one group received metformin, an oral anti-diabetic agent. A sixth group, consisting of non-diabetic mice, was also included for comparison. They were treated with vehicle alone. Mice were housed 5 to a cage with free access to food and water. Test Samples and Dose. A. nodosum samples tested were as follows: 1) crude extract, CE 2) polyphenolic fraction, PPF 3) polysaccharide fraction, PSF Samples were dissolved in carboxymethylcellulose (CMC; 0.5%). Test sample solutions were prepared every morning at a concentration of 20 mg/ml in distilled water and given via gavage at a volume of 0.2 mL/20 g BW to deliver a dose of 200 mg/kg body weight. The control groups were gavaged with distilled water (0.2 mL/20 g BW). […] Animals were treated daily for 4 weeks. Measurements.

STZ-diabetic mice = experiment: Sucrose challenge in diabetic mice; format: in vivo
Procedure: Animal model. Mice were made diabetic as described above and were allotted to eight groups (10 animals per group) as follows: […] Treatment and Measurement. Test samples were prepared at appropriate concentrations so that the required doses were delivered in a volume of 0.2 mL/20 g body weight. Acarbose was also dissolved in 0.5% CMC ([…]) and given at a dose of 25 mg/kg BW. Ten minutes after gavaging of samples, blood was sampled from tail vein for glucose measurement (Time 0). The animals were then gavaged with sucrose (20% in water at a dose of 2 g/kg body weight). […] A group of non-diabetic mice were given an equivalent volume of saline (0.2 ml/20 g BW).

[2] = STZ-diabetic mice, Day 28, dose 200 mg/kg, mean ± S.D.
[3] = STZ-diabetic mice, daily gavage, printed dose 200 mg/kg, mean ± S.D.
[4] = sucrose challenge, acarbose-treated mice

Compound: CN(C)C(=N)N=C(N)N [Metformin, metformin]
- serum glucose versus STZ-diabetic mice (in words) ([1]; 4-week treatment, P<0.05): significantly lower serum glucose at each of the time points
- blood total antioxidant level (in words) ([1]; Day 28): significant increases in antioxidant activity
- glycated Hb versus STZ-diabetic mice (in words) ([1]; Day 28): reduced
- total cholesterol versus STZ-diabetic mice (in words) ([1]; Day 28): reduced
- liver glycogen level (in words) ([1]; Day 28, STZ-diabetic mice): significantly increased liver glycogen level
- AntIoxidant activity (U/ml serum) [1, 2]: 8.15 ± 1.8 U/ml serum
- Glycated Hb [1, 2]: 5.22 ± 0.5 mmol/L
- Liver glycogen (mg/g wet tissue) [1, 2]: 5.51 ± 0.8 mg/g wet tissue
- Total Cholesterol [1, 2]: 1.93 ± 0.7 mmol/L
- Blood glucose (mM) Day 7 [1, 3]: 13.04 ± 5.8 mM
- Blood glucose (mM) Day 14 [1, 3]: 11.60 ± 4.1 mM
- Blood glucose (mM) Day 21 [1, 3]: 12.38 ± 4.7 mM
- Blood glucose (mM) Day 28 [1, 3]: 13.59 ± 7.7 mM
- Blood glucose (mM) Day 0 ([1]; STZ-diabetic mice, start of treatment period, mean ± S.D.): 13.50 ± 2.5 mM

Compound: C[C@H]1O[C@H](O[C@H]2[C@H](O)[C@@H](O)[C@@H](O[C@H]3[C@H](O)[C@@H](O)C(O)O[C@@H]3CO)O[C@@H]2CO)[C@H](O)[C@@H](O)[C@@H]1N[C@H]1C=C(CO)[C@@H](O)[C@H](O)[C@H]1O (stereo partly drawn) [Acarbose, acarbose]
- serum glucose level, 0 min (STZ-diabetic mice; sucrose challenge 2 g/kg, dose 25 mg/kg, 0 min): 15.64 ± 2.6 mmol/L
- serum glucose level, 10 min (STZ-diabetic mice; sucrose challenge 2 g/kg, dose 25 mg/kg, 10 min): 21.71 ± 3.6 mmol/L
- serum glucose level, 30 min (STZ-diabetic mice; sucrose challenge 2 g/kg, dose 25 mg/kg, 30 min): 24.67 ± 4.1 mmol/L
- serum glucose level, 60 min (STZ-diabetic mice; sucrose challenge 2 g/kg, dose 25 mg/kg, 60 min): 19.80 ± 4.8 mmol/L
- serum glucose level, 120 min (STZ-diabetic mice; sucrose challenge 2 g/kg, dose 25 mg/kg, 120 min): 14.29 ± 2.9 mmol/L
- area-under-the-curve (AUC) for glucose (STZ-diabetic mice; [4]): 2340 units (mmol/L×120 min.)
- reduction of glucose AUC versus STZ-mice (STZ-diabetic mice; [4]): 33%
